Test results published in ChEMBL document CHEMBL5625265, “Exploring 2-methyl-substituted vitamin K3 derivatives with potent inhibitory activity against the 3CL protease of SARS-CoV-2” (Bioorg Med Chem Lett, 2024).
The source made the active and inactive calls. No cut-off for these calls is given here.

Columns and labels:
[1] = target: Replicase polyprotein 1ab (Severe acute respiratory syndrome coronavirus 2) (UniProt P0DTD1); test: Inhibition of SARS-CoV-2 3CL protease at 10 uM using Dabcyl-KTSAVLQSGFRKME-Edans as a substrate preincubated for 30 mins followed by substrate addition and measured after for 4 hrs by FRET assay relative to control; settings: time 4.5 hrs
[2] = target: Replicase polyprotein 1ab (Severe acute respiratory syndrome coronavirus 2, UniProt P0DTD1); test: Inhibition of SARS-CoV-2 3CL protease using Dabcyl-KTSAVLQSGFRKME-Edans as a substrate preincubated for 30 mins followed by substrate addition and measured after for 4 hrs by FRET assay

O=C1C=C(Sc2ccccc2)C(=O)c2ccccc21
inhibition [1]: Active
IC50 [2]: 0.964 µM

O=C1C=C(C2CCC2)C(=O)c2ccccc21
inhibition [1]: Active

CC(=O)CCC1=CC(=O)c2ccccc2C1=O
inhibition [1]: Active

CC1=CC(=O)c2ccccc2C1=O
inhibition [1]: 40%

O=C1C=C(Oc2ccccc2)C(=O)c2ccccc21
inhibition [1]: Active

CCSC1=CC(=O)c2ccccc2C1=O
inhibition [1]: Active
IC50 [2]: 5.35 µM

O=C1C=C(C2CC2)C(=O)c2ccccc21
inhibition [1]: Active
